Test results: patent EP3265461B1, “VERBASCOSIDE DERIVATIVES” (Croda Italiana S.p.A., priority 2015, dated 2016)

How the values were obtained:
Stability in blood, HPLC = assay type: in vitro ADME
Method: (§1) The stability of the compounds of formula (I) was measured under physiological conditions.
(§2) The stability measurement was conducted by means of analytic HPLC techniques with a UV detector at 330 nm. The half-life is reported (in hours).

[1] = Stability in fasted intestinal fluid (FASSIF), HPLC; assay type: in vitro ADME; details: pH=6.5
Method: as §1, §2

[2] = Stability in gastric fluids (SGF), HPLC; assay type: in vitro ADME; details: pH=1.6
Method: as §1, §2

[3] = Metabolism in human liver; assay type: in vitro ADME
Excerpt: Moreover, it has also been determined that the derivatives (B), (C) and (D) are metabolized in human liver, whereas verbascoside (derivative (A)) is stable.

[4] = Stability in fed intestinal fluid (FESSIF), HPLC; assay type: in vitro ADME; details: fed-state simulated intestinal fluid (FESSIF), pH=5, read-out: FESSIF t1/2
Method: as §1, §2

[5] = test system: platelet aggregation (PA); assay: Phase II study: ADP-induced platelet aggregation by light transmission aggregometry; assay type: in vivo, human; details: platelets stimulated with 5 µM ADP
Method: (§3) A randomized, double-blind Phase II study was conducted to evaluate verbascoside activity in modulating the platelet aggregation (PA) values on subjects with at least one cardiovascular risk factor, selected from: age over 65 years, diabetes mellitus, hypertension, smoke, hyperlipidemia, waist circumference greater than 102 cm in men or 88 cm in women. Patients under pharmacological treatment with platelet antiaggregants (aspirin, clopidogrel, ticlopidine, prasugrel, ticagrelor), with anticoagulants (e.g. warfarin) or with oral contraceptives, were excluded. Other exclusion criteria were: events of myocardial infarction, coronary revascularization (percutaneous or surgical), infarction, temporary ischemic attack, peripheral vascular pathology, and the consumption of corticosteroids and/or non-steroidal anti-inflammatory drugs in the last month.
(§4) The experimentation was conducted on 100 subjects. […]
(§5) PA was determined by means of light transmission aggregometry according to standard protocols. […] The aggregation was measured at 37°C with a PACKS-4 aggregometer (Helena Laboratories). The curves were recorded for 6 min. The aggregation was measured at a maximum aggregation (maximum PA) and at 5 min (delayed PA). […]

[6] = Oxidation stability as antioxidant power against the DPPH radical; assay type: physicochemical; details: 100 µM DPPH in methanol, 15 min in the dark at room temperature, 515 nm
Method: The oxidation stability of the compounds of formula (I) was evaluated as a function of their antioxidant power, determined as the reactivity of the compound against the stable radical 2,2-diphenyl-1-picrylhydrazyl (DPPH) in solution. High reactivity means poor stability under oxidizing conditions.
A 100 µM solution of DPPH in methanol, prepared from a 1 mM solution, then diluted at 1:10 was used for the determination.
The following final dilutions (from a solution in methanol having a double concentration) of the compound of formula (I) to be analyzed were prepared: 500 µg/mL, 100 µg/mL, 50 µg/mL, 10 µg/mL, 5 µg/mL, 2.5 µg/mL, 1 µg/mL, 0.5 µg/mL, 0.1 µg/mL, 0.05 µg/mL, 0 µg/mL.
500 µl of the compound to be tested at a certain concentration and 500 µl of DPPH were placed in a cuvette, they were all mixed and incubated in the dark at room temperature for 15 min.
The solution was analyzed with a spectrophotometer at a wavelength of 515 nm (methanol as white).
The color in the cuvettes varies from violet (DPPH without compound of formula (I)) to straw-yellow (DPPH with maximum inhibitory concentration of the compound of formula (I)).
The percent inhibition of the radical reaction is defined as: [(Absmax(DPPHalone)−Abs(DPPH+compound))/Absmax] × 100. [formula] […]

[7] = test system: platelet aggregation (PA); assay: Phase II study: arachidonic acid-induced platelet aggregation by light transmission aggregometry; assay type: in vivo, human; details: platelets stimulated with 1 µM AA
Method: as §3, §4, §5

C[C@@H]1O[C@@H](O[C@@H]2[C@@H](O)[C@H](OCCc3ccc(O)c(O)c3)O[C@H](CO)[C@H]2OC(=O)/C=C/c2ccc(O)c(O)c2)[C@H](O)[C@H](O)[C@H]1O [(A), Verbascoside]
Blood t1/2 (Stability in blood, HPLC): stable
FASSIF t1/2 [1]: stable
SGF t1/2 [2]: STABLE
metabolized in human liver [3]: stable
half-life [4]: > 24 h
ADP-induced maximum PA ([5]; after 2 weeks of 50 mg/day, time 0 value 58±8%, p=0.5): 56±9%
ADP-induced maximum PA ([5]; after 2 weeks of 100 mg/day, time 0 value 60±12%, p<0.01): 49±15%
Inhibitory activity (IC50) [6]: 2 µg/mL
Arachidonic acid-induced maximum PA ([7]; after 2 weeks of 50 mg/day, time 0 value 50±9%, p=0.4): 48±10%
Arachidonic acid-induced maximum PA ([7]; after 2 weeks of 100 mg/day, time 0 value 51±13%, p<0.01): 39±15%
